This is an account of results in PubChem BioAssay AID328 (DTP/NCI, 2004).

This experiment has as its system BDF1 mice, P388 leukemia ip, median survival T/C. The experiment in a line: NCI In Vivo Anticancer Drug Screen. Data for tumor model P388 Leukemia (intraperitoneal) in B6D2F1 (BDF1) mice. The following applies: endpoint: median survival time, higher = longer survival. The procedure, abridged: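 In tumour-bearing mice, survival after compound treatment is set against the vehicle group and given as a quotient.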

[1] abbreviates: dose: 100.0 mg/kg/injection, schedule: Q01DX009 (ip), vehicle: saline with Tween-80.
Setting [2] is: dose: 200.0 mg/kg/injection, schedule: Q01DX009 (ip), vehicle: saline with Tween-80.
The mark [3] stands for this setting: dose: 400.0 mg/kg/injection, schedule: Q01DX009 (ip), vehicle: saline with Tween-80.
[4] abbreviates: dose: 100.0 mg/kg/injection, schedule: Q01DX009 (ip), vehicle: Klucel (hydroxypropylcellulose) (HPC).
[5] abbreviates: dose: 400.0 mg/kg/injection, schedule: Q01DX009 (ip), vehicle: Klucel (hydroxypropylcellulose) (HPC).

“And” between values parts separate entries of the source, which are not always exact repeats. Equal entries are not always repeated. Toxic doses and inconclusive results are not listed.

As to `CC1=CC2C(O)(CC(CO)=CC3C4C(C)(C)C4(OC(=O)c4ccccc4)C(OC(=O)c4ccccc4)C(C)C32O)C1=O` (configuration not stated), the T/C is, setting by setting: (dose: 0.03 mg/kg/injection, schedule: Q01DX009 (ip), vehicle: Klucel (hydroxypropylcellulose) (HPC)) 95 % of control; (dose: 0.03 mg/kg/injection, schedule: Q01DX009 (ip), vehicle: saline + alcohol) 93 % of control; (dose: 0.06 mg/kg/injection, schedule: Q01DX009 (ip), vehicle: Klucel (hydroxypropylcellulose) (HPC)) 99 % of control; (dose: 0.06 mg/kg/injection, schedule: Q01DX009 (ip), vehicle: saline + alcohol) 94 % of control; (dose: 0.12 mg/kg/injection, schedule: Q01DX009 (ip), vehicle: Klucel (hydroxypropylcellulose) (HPC)) 99 % of control; (dose: 0.12 mg/kg/injection, schedule: Q01DX009 (ip), vehicle: saline + alcohol) 112 % of control. The T/C reads like this: (dose: 0.25 mg/kg/injection, schedule: Q01DX009 (ip), vehicle: Klucel (hydroxypropylcellulose) (HPC)) 94 % of control; (dose: 0.25 mg/kg/injection, schedule: Q01DX009 (ip), vehicle: saline + alcohol) 119 % of control; (dose: 0.5 mg/kg/injection, schedule: Q01DX009 (ip), vehicle: Klucel (hydroxypropylcellulose) (HPC)) 89 % of control; (dose: 0.5 mg/kg/injection, schedule: Q01DX009 (ip), vehicle: saline + alcohol) 119 % of control; (dose: 1.0 mg/kg/injection, schedule: Q01DX009 (ip), vehicle: Klucel (hydroxypropylcellulose) (HPC)) 110 % of control; (dose: 1.0 mg/kg/injection, schedule: Q01DX009 (ip), vehicle: saline + alcohol) 92 % of control. In addition, the T/C was 116 % of control (dose: 3.1 micrograms/kg/injection, schedule: Q01DX009 (ip), vehicle: gum acacia); 172 % of control (dose: 3.1 micrograms/kg/injection, schedule: Q01DX009 (ip), vehicle: saline + alcohol); 88 % of control and 118 % of control (dose: 3.1 micrograms/kg/injection, schedule: Q01DX009 (ip), vehicle: saline with Tween-80); 110 % of control (dose: 6.2 micrograms/kg/injection, schedule: Q01DX009 (ip), vehicle: gum acacia); 118 % of control (dose: 6.2 micrograms/kg/injection, schedule: Q01DX009 (ip), vehicle: saline + alcohol); 119 % of control (dose: 6.2 micrograms/kg/injection, schedule: Q01DX009 (ip), vehicle: saline with Tween-80). Also, the T/C reads like this: (dose: 12.5 micrograms/kg/injection, schedule: Q01DX009 (ip), vehicle: gum acacia) 107 % of control; (dose: 12.5 micrograms/kg/injection, schedule: Q01DX009 (ip), vehicle: saline + alcohol) 110 % of control; (dose: 12.5 micrograms/kg/injection, schedule: Q01DX009 (ip), vehicle: saline with Tween-80) 98 % of control and 121 % of control; (dose: 25.0 micrograms/kg/injection, schedule: Q01DX009 (ip), vehicle: gum acacia) 108 % of control; (dose: 25.0 micrograms/kg/injection, schedule: Q01DX009 (ip), vehicle: saline + alcohol) 110 % of control; (dose: 25.0 micrograms/kg/injection, schedule: Q01DX009 (ip), vehicle: saline with Tween-80) 93 % of control. The T/C (dose: 50.0 micrograms/kg/injection, schedule: Q01DX009 (ip), vehicle: gum acacia) was 110 % of control; the T/C (dose: 50.0 micrograms/kg/injection, schedule: Q01DX009 (ip), vehicle: saline + alcohol) was 116 % of control; the T/C (dose: 100.0 micrograms/kg/injection, schedule: Q01DX009 (ip), vehicle: gum acacia) is 105 % of control; the T/C (dose: 100.0 micrograms/kg/injection, schedule: Q01DX009 (ip), vehicle: saline + alcohol) was 110 % of control; the T/C (dose: 100.0 micrograms/kg/injection, schedule: Q01DX009 (ip), vehicle: saline with Tween-80) was 104 % of control; the T/C (dose: 200.0 micrograms/kg/injection, schedule: Q01DX009 (ip), vehicle: gum acacia) is 110 % of control. Moreover, the T/C is 150 % of control (dose: 200.0 micrograms/kg/injection, schedule: Q01DX009 (ip), vehicle: saline + alcohol); 107 % of control and 116 % of control (dose: 200.0 micrograms/kg/injection, schedule: Q01DX009 (ip), vehicle: saline with Tween-80); 116 % of control (dose: 400.0 micrograms/kg/injection, schedule: Q01DX009 (ip), vehicle: saline + alcohol); 96 % of control (dose: 800.0 micrograms/kg/injection, schedule: Q01DX009 (ip), vehicle: gum acacia); 96 % of control (dose: 800.0 micrograms/kg/injection, schedule: Q01DX009 (ip), vehicle: saline + alcohol); 98 % of control and 110 % of control (dose: 800.0 micrograms/kg/injection, schedule: Q01DX009 (ip), vehicle: saline with Tween-80).

In the case of `N#CCc1ccc([N+](=O)[O-])cc1`, the T/C is 100 % of control (dose: 6.25 mg/kg/injection, schedule: Q01DX009 (ip), vehicle: Klucel (hydroxypropylcellulose) (HPC)); 91 % of control (dose: 12.5 mg/kg/injection, schedule: Q01DX009 (ip), vehicle: Klucel (hydroxypropylcellulose) (HPC)); 104 % of control (dose: 12.5 mg/kg/injection, schedule: Q04DX003 (ip), vehicle: Klucel (hydroxypropylcellulose) (HPC)); 117 % of control (dose: 25.0 mg/kg/injection, schedule: Q04DX003 (ip), vehicle: Klucel (hydroxypropylcellulose) (HPC)).

Turning to `CN(C)C/C=C(/c1ccc(Br)cc1)c1cccnc1`, the T/C runs as follows: (dose: 12.5 mg/kg/injection, schedule: Q01DX009 (ip), vehicle: saline) 89 % of control; (dose: 25.0 mg/kg/injection, schedule: Q01DX009 (ip), vehicle: saline) 103 % of control; (dose: 50.0 mg/kg/injection, schedule: Q01DX009 (ip), vehicle: saline) 97 % of control.

Take `COC(=O)c1ccc(OS(=O)(=O)c2cccc([N+](=O)[O-])c2)cc1`: the T/C is 88 % of control under setting [1]; 100 % of control (dose: 100.0 mg/kg/injection, schedule: Q04DX003 (ip), vehicle: Klucel (hydroxypropylcellulose) (HPC)); 100 % of control under setting [2]; 100 % of control (dose: 200.0 mg/kg/injection, schedule: Q04DX003 (ip), vehicle: Klucel (hydroxypropylcellulose) (HPC)); 88 % of control under setting [3]; 100 % of control (dose: 400.0 mg/kg/injection, schedule: Q04DX003 (ip), vehicle: Klucel (hydroxypropylcellulose) (HPC)).

In the case of `Cc1cc2nc(CO)[nH]c2cc1C`, the T/C under setting [4] is 100 % of control; the T/C (dose: 200.0 mg/kg/injection, schedule: Q01DX009 (ip), vehicle: Klucel (hydroxypropylcellulose) (HPC)) is 86 % of control; the T/C under setting [5] was 95 % of control.

Consider `C[C@]12CC[C@@H](O)C[C@H]1CC[C@@H]1[C@@H]2CC[C@]2(C)C(=O)CC[C@@H]12`, for which the T/C is, setting by setting: under setting [1], 90 % of control; (dose: 100.0 mg/kg/injection, schedule: Q04DX003 (ip), vehicle: saline with Tween-80) 105 % of control; under setting [2], 90 % of control; (dose: 200.0 mg/kg/injection, schedule: Q04DX003 (ip), vehicle: saline with Tween-80) 100 % of control; under setting [3], 90 % of control; (dose: 400.0 mg/kg/injection, schedule: Q04DX003 (ip), vehicle: saline with Tween-80) 100 % of control.

Turning to `Nc1nc(N)c2cc(Sc3cccc(C(F)(F)F)c3)ccc2n1`, the T/C (dose: 50.0 mg/kg/injection, schedule: Q01DX009 (ip), vehicle: saline with Tween-80) is 113 % of control.

Turning to `COC1(c2ccc(Br)cc2)OC1(C)C` (configuration not stated), the T/C is 101 % of control (dose: 6.25 mg/kg/injection, schedule: Q04DX003 (ip), vehicle: water); 94 % of control (dose: 12.5 mg/kg/injection, schedule: Q04DX003 (ip), vehicle: water); 110 % of control (dose: 25.0 mg/kg/injection, schedule: Q01DX009 (ip), vehicle: water); 101 % of control (dose: 25.0 mg/kg/injection, schedule: Q04DX003 (ip), vehicle: water); 112 % of control (dose: 50.0 mg/kg/injection, schedule: Q01DX009 (ip), vehicle: water); 97 % of control (dose: 50.0 mg/kg/injection, schedule: Q04DX003 (ip), vehicle: water). Besides, the T/C by setting is: (dose: 100.0 mg/kg/injection, schedule: Q01DX009 (ip), vehicle: water) 100 % of control; (dose: 100.0 mg/kg/injection, schedule: Q04DX003 (ip), vehicle: water) 86 % of control; (dose: 200.0 mg/kg/injection, schedule: Q01DX009 (ip), vehicle: water) 110 % of control; (dose: 400.0 mg/kg/injection, schedule: Q01DX009 (ip), vehicle: water) 124 % of control.

Regarding `COC1OC(COS(=O)(=O)c2ccc(C)cc2)C2OC(C)(C)OC12` (configuration not stated), the T/C is 104 % of control (dose: 50.0 mg/kg/injection, schedule: Q01DX009 (ip), vehicle: Klucel (hydroxypropylcellulose) (HPC)); 90 % of control under setting [4]; 90 % of control under setting [5].
